Assay results: US9308214B2, “Method for moderately increasing the proton conductivity of biological membranes with the aid of mitochondria-targeted delocalized cations” (MITOTECH S.A., priority 2008, dated 2016)

Tests used:
[1] = tested on: yeast Saccharomyces cerevisiae; assay: Programmed death in yeast induced by amiodarone (colony survival); format: cell-based; settings: 80 μM amiodarone; for survival of yeast cells (protective effect, in words): TPP tested from 100 nM to 400 nM; for survival of yeast cells: 1 hr at 30° C., survival without compound 2 percent, 3 independent experiments, p below 0.05
From the text: Amiodarone (a calcium channel blocker) causes the death of the yeast Saccharomyces cerevisiae which by a number of features resembles apoptosis in higher eukaryotes. In the cells, amiodarone induces activation of a cascade of events leading to formation of reactive oxygen species and subsequent cell death. […] A source of formation of reactive oxygen species induced by amiodarone is a hyperpolarized mitochondrium.
The following compounds of structure (I) (SKQ1, SKQ3, and C12TPP) were selected for this study. […] Then a compound of structure (I) or mock and 80 μM amiodarone were added to the cell suspension. Cells were incubated for 1 hr at 30° C. and afterwards transferred to solid YPD medium containing 2% bactoagar. The number of colonies was counted after 2 days of incubation on solid medium. 100% survival corresponds to the number of colonies from zero time-point transferred to solid medium prior to addition of amiodarone.

[2] = Protonophore activity on black membrane model (diffusion potential on lipid bilayer); settings: C12-TPP 1 μM in both compartments; ΔpH=1 by KOH; palmitic acid 1 mg/ml in membrane vs absent; pH 7.5
Procedure: To test penetrating ability of mitochondria-targeted compounds of structure (I), a method based on the ability of ions to penetrate through the bilayer phospholipid membrane moving along concentration gradient was used. The two chambers filled with an aqueous solution are separated by the bilayer membrane, the compound tested is added to one of the chambers. If a charged compound is capable of penetrating through the bilayer membrane, fast diffusion of the compound from the chamber with its high concentration to the chamber with its low concentration occurs, thus difference in the potentials is formed on the membrane. For ions carrying one charge and capable of passive penetrating through the membrane, the 10-fold concentration gradient allows to produce the potential of 60 mV (according to the Nernst equation).
This method was used in various studies on the ability of ions to penetrate through a bilipid membrane and is described in Starkov, et al. (1997) Biochem. Biophys. Acta, 1318:159-172. With this method, C12-TPP (compound of structure (I)) was tested.
Experiments were carried out in a Teflon cuvette having two compartments, and in a 0.6-mm hole between the two compartments the membrane was formed. Medium contained 50 mM Tris-HCl, 100 mM KCl, pH=7.5. ΔpH=1 was created by adding KOH to one of the cuvette compartments. […]

[3] = Fluorescence correlation spectroscopy of SkQR1 micelles in aqueous solution with fatty acid (stearate); format: physicochemical
Procedure: Fluorescence correlation spectroscopy (FCS) is often used to study micellization of surfactants. In one report (Lu, et al. (2006) Analytica Chimica Acta, 556:216-225), R18, i.e., rhodamine with covalently attached fat tail was used as a marker. R18 itself forms large and poorly fluorescent aggregates in aqueous solution resulting in a small number of particles in the confocal volume (N) and a small fluorescence signal. When a detergent was added at a concentration above its CMC (the critical micelle concentration), an increase in total fluorescence and a significant increase in the number of particles N occurred. […] That was associated with lower diffusion coefficient of detergent micelles as compared to the R18 aggregates.
FIGS. 6A and B show the effect of a fatty acid (stearate) on the autocorrelation function of SkQR1 in water. […] For example, the number of particles in the confocal volume sharply increases. The constant of micelle formation for stearate is about 0.3 mM. In this case, fragmentation of the SkQR1 aggregates induced by such low concentrations of the fatty acid occurs. This fragmentation decreases the degree of the self-quenching of fluorescence that increases the total signal. […] The constant of micelle formation for anionic surfactants decreases under the influence of cationic surfactants or polymers. In that case, the total fluorescence signal was 141 kHz. […] The total fluorescence signal was 63 kHz that points to the beginning of the self-quenching of the dye in the micelles.
The fluctuations of the fluorescence signal in this case have no diffusion component yet. This process may be the output/input of SkQR1 molecules from water into micelles that can lead to fluctuations of the fluorescence due to the different quantum yield of fluorescence of the dye in polar and non-polar environments (Zettl, et al. (2005) J. Phys. Chem. B. 109:13397-13401).

CCCCCCCCCCCC[P+](c1ccccc1)(c1ccccc1)c1ccccc1 [C12-TPP, dodecyl triphenylphosphonium]
survival of yeast cells (protective effect, in words) [1]: even more effective than the tested antioxidants | optimum concentration of the protective effect ([1]; pronounced concentration dependence): 200 nM | diffusion potential (ΔΨ) in response to ΔpH creation [2]: presence of a fatty acid in the membrane facilitates an increase in diffusion potential

Cc1c(O)cc(CCCCCCCCCC[P+](c2ccccc2)(c2ccccc2)c2ccccc2)c(O)c1C [SkQ1]
survival of yeast cells (protective effect, in words) [1]: significantly increase the survival

CC/N=c1/cc2oc3cc(NCC)c(C)cc3c(-c3ccccc3C(=O)OCCCCCCCCCCC3=CC(=O)C(C)=C(C)C3=O)c-2cc1C [SkQR1]
fluorescence signal from the sample ([3]; 1.5 μg/ml (about 5 μM) stearate): 67 kHz | aggregation state in aqueous solution ([3]; aggregates degrade in presence of low concentrations of fatty acids): forms micelles (or large aggregates) in aqueous solution | total fluorescence signal ([3]; further increase in concentration of stearate (above 50 μM)): 63 kHz | fluorescence signal from the sample ([3]; in water, absence of stearate): 44 kHz | total fluorescence signal ([3]; stearate up to 50 μM): 141 kHz | survival of yeast cells [1]: 7%

COc1c(O)c(C)c(CCCCCCCCCC[P+](c2ccccc2)(c2ccccc2)c2ccccc2)c(O)c1OC [MitoQ]
survival of yeast cells [1]: 8%

Cc1c(C)c(O)c(CCCCCCCCCC[P+](c2ccccc2)(c2ccccc2)c2ccccc2)c(C)c1O [SkQ3]
survival of yeast cells (protective effect, in words) [1]: significantly increase the survival
